These results are taken from US7084176B2, “N-arylphenylacetamide derivatives and medicinal compositions containing the same” (Dainippon Pharmaceutical Co., Ltd., priority 2001, dated 2006).

One data set relates to male Std:ddY mice. In words: Phenyl-1,4-benzoquinone-induced writhing test. The format is in vivo. The settings on record: for inhibition in vivo at 10 mg/kg / inhibition in vivo at 1 mg/kg: 1 h; for ED50 / ED50 (mg/kg sc) / ED50 (mg/kg po): logit analysis; for inhibition in vivo at 1 mg/kg: subcutaneously administered at a dose of 1 mg/kg. The protocol:
Phenyl-1,4-benzoquinone-induced Writhing Test Referring to the method disclosed in Proc. Soc. exp. Biol. […] For oral administration, a test compound was suspended in 0.5% tragacanth solution. […] In the control group, a physiological saline solution containing 10% Tween 80 and 10% ethanol was administered in the case of subcutaneous administration, or a 0.5% tragacanth solution was administered in the case of oral administration. The number of writhing movements in the test compound-treated group was compared with that in the control group, and the writhing inhibitory percentage was calculated therefrom and considered as an analgesic effect. Writhing inhibitory percentage (%)=[(A−B)/A]×100 In the above equation, A means the number of writhing movements in the control group, and B means the number of writhing movements in the test compound-treated group. From the writhing inhibitory percentage of the test compound, ED50 (mg/kg) was calculated by logit analysis.

For a further data set, the system named is Jcl:SD strain male rats. In words: Study of pungency (eye wiping test). The format is in vivo. The settings on record: a drop into the eye of rats, counted for 3 minutes, average ± S.E.M. The procedure:
Experiment 2: Study of Pungency (Eye Wiping Test)
The pungency of the test compounds were studied referring to the method of Jancso et al. [Acta Physiol. Acad. Sci. Hung., 19, 113–131 (1961)] and the method of Szallasi et al. [Brit. J. Pharmacol., 119, 283–290 (1996)]. A test compound was dissolved in a physiological saline solution containing 10% ethanol and 10% Tween 80 into various concentrations (μg/ml), and a drop of the solution thereof was added dropwise into the eye of Jcl:SD strain male rats (5 to 25 […] per group, body weight; 220 to 280 g). Then, the number of the protective wiping movements with forefoot was counted for 3 minutes, and was considered as an index for pungency. The test results are expressed as average value±S.E.M., and the statistical significant differences between each test compound-treated group and the control group were analyzed using non-parametric Dunnett's multiple range test, and p<0.05 was considered as significant difference.

Setting [1] is: Mus musculus, po, orally administered at a dose of 10 mg/kg, 60 minutes before PBQ, read-out: Inhibitory percentage (%).
Where [2] appears, read: Mus musculus, po, oral administration, writhing inhibition, read-out: ED50 (mg/kg po).
Setting [3] is: Mus musculus, sc, 60 minutes before PBQ, read-out: Inhibitory percentage (%).
Setting [4] is: Mus musculus, sc, subcutaneous administration, writhing inhibition, read-out: ED50 (mg/kg sc).

Like-named read-outs stand apart in the source and are kept apart here. Bounds are passed on as bounds.

On to `COc1cc(CC(=O)Nc2cccc(C3CCC(C(C)(C)C)CC3)c2)ccc1O` (stereo not drawn) [Example 20, N-[3-(4-tert-butylcyclohexan-1-yl)phenyl]-4-hydroxy-3-methoxyphenylacetamide], for which the inhibition in vivo at 10 mg/kg with male Std:ddY mice (setting [1]) turned out to be 97.1%. Also, the ED50 in the data set on male Std:ddY mice (setting [2]) was 1.28 mg/kg; with male Std:ddY mice (setting [4]), not above 0.1 mg/kg. For the same compound, the inhibition in vivo at 1 mg/kg in the data set with male Std:ddY mice (setting [3]) was determined as 96.1%. The “ED50 (mg/kg sc)” value in the data set on male Std:ddY mice (subcutaneous administration, writhing inhibition, listed as Ex. 20) stood at 0.056 mg/kg. Moreover, the “Number of wiping movements” value in the data set with Jcl:SD strain male rats (concentration 100 μg/ml) was 5.0 ± 1.3; with Jcl:SD strain male rats (concentration 500 μg/ml), 10.6 ± 0.7.

With `COc1cc(CC(=O)Nc2cccc(C3CCCCC3)c2)ccc1OCCN` [Example 61, 4-(2-aminoethoxy)-N-(3-cyclohexylphenyl)-3-methoxyphenylacetamide], the inhibition in vivo at 10 mg/kg with male Std:ddY mice (setting [1]) stood at 89%. Further, the ED50 with male Std:ddY mice (setting [2]) came out at 3 mg/kg; with male Std:ddY mice (setting [4]), 0.13 mg/kg. Also, the inhibition in vivo at 1 mg/kg in the data set on male Std:ddY mice (setting [3]) turned out to be 72.8%. Moreover, the “Number of wiping movements” value in the data set with Jcl:SD strain male rats (concentration 20 μg/ml) stood at 2.0 ± 0.8; with Jcl:SD strain male rats (concentration 100 μg/ml), 7.4 ± 2.1; in the data set on Jcl:SD strain male rats (concentration 500 μg/ml), 15.6 ± 4.5.

On to `COc1cc(CC(=O)Nc2cccc(CCc3ccccc3)c2)ccc1OCCN` [Example 60, 4-(2-aminoethoxy)-3-methoxy-N-[3-(2-phenylethyl)phenyl]-phenylacetamide], for which the ED50 in the data set with male Std:ddY mice (setting [2]) is not above 1 mg/kg; in the data set with male Std:ddY mice (setting [4]), 0.83 mg/kg. The inhibition in vivo at 1 mg/kg in the data set with male Std:ddY mice (setting [3]) stood at 50.5%. Moreover, the “ED50 (mg/kg po)” value in the data set with male Std:ddY mice (oral administration, writhing inhibition, listed as Ex. 60) is 0.68 mg/kg. Moreover, the “Number of wiping movements” value in the data set on Jcl:SD strain male rats (concentration 500 μg/ml) was “no significant increase”; with Jcl:SD strain male rats (concentration 500 μg/ml, listed as Ex. 60), 4.2 ± 1.2; in the data set with Jcl:SD strain male rats (concentration 1000 μg/ml) it was 8.4 ± 2.1.

Regarding `COc1cc(CC(=O)Nc2cccc(-c3ccc(Cl)cc3)c2)ccc1OCCN` [Example 67, 4-(2-aminoethoxy)-N-[3-(4-chlorophenyl)phenyl]-3-methoxyphenylacetamide], in the data set with male Std:ddY mice (setting [1]), the inhibition in vivo at 10 mg/kg was 90.2%. In addition, the “Number of wiping movements” value in the data set on Jcl:SD strain male rats (concentration 100 μg/ml) was 3.8 ± 1.3; with Jcl:SD strain male rats (concentration 500 μg/ml), 13.4 ± 2.8.

For the compound `COc1cc(CC(=O)Nc2cccc(-c3ccc4c(c3)OCO4)c2)ccc1OCCN` [Example 164, 4-(2-aminoethoxy)-N-[3-(2H-benzo[d]-1,3-dioxolan-5-yl)phenyl]-3-methoxyphenylacetamide], in the data set with male Std:ddY mice (oral administration, writhing inhibition), the “ED50 (mg/kg po)” value was found to be 1.56 mg/kg. Moreover, the “Inhibitory percentage (%)” value in the data set on male Std:ddY mice (writhing inhibition, orally administered at a dose of 10 mg/kg, 60 minutes before PBQ) is on record as 99.0%. In addition, the “Number of wiping movements” value is on record as 5.4 ± 2.8 in the data set on Jcl:SD strain male rats (concentration 100 μg/ml); “no significant increase” in the data set on Jcl:SD strain male rats (concentration 500 μg/ml); 2.8 ± 1.7 with Jcl:SD strain male rats (concentration 500 μg/ml, listed as Ex. 164).

As for `COc1cc(CNC(=O)CCCC/C=C/C(C)C)ccc1O` [Capsaicin, trans-8-methyl-N-vanillyl-6-nonenamide, reference compound], the ED50 in the data set with male Std:ddY mice (setting [2]) is more than 30 mg/kg; with male Std:ddY mice (setting [4]), 1.15 mg/kg. Also, in the data set with male Std:ddY mice (Mus musculus, po, orally administered at a dose of 30 mg/kg, read-out: Inhibitory percentage (%)), the inhibition in vivo at 30 mg/kg was found to be 20.6%. In addition, the inhibition in vivo at 1 mg/kg with male Std:ddY mice (setting [3]) was found to be 46.6%. Moreover, the “Number of wiping movements” value is listed as 6.0 ± 0.8 in the data set with Jcl:SD strain male rats (concentration 1 μg/ml); 7.8 ± 1.4 in the data set on Jcl:SD strain male rats (concentration 2 μg/ml); 11.2 ± 3.0 in the data set on Jcl:SD strain male rats (concentration 5 μg/ml); “significantly increased” with Jcl:SD strain male rats (concentration 5 μg/ml, listed as capsaicin); 26.4 ± 6.0 in the data set with Jcl:SD strain male rats (concentration 10 μg/ml); 38.0 ± 4.8 in the data set on Jcl:SD strain male rats (concentration 20 μg/ml).

Take `COc1cc(CC(=O)Nc2cccc(C3CCC(C(C)(C)C)CC3)c2)ccc1OCCN` (stereo not drawn) [Example 62, 4-(2-aminoethoxy)-N-[3-(4-tert-butylcyclohexan-1-yl)phenyl]-3-methoxyphenylacetamide]: in the data set on male Std:ddY mice (setting [1]), the inhibition in vivo at 10 mg/kg amounted to 96.1%. In the data set with male Std:ddY mice (setting [3]), the inhibition in vivo at 1 mg/kg was found to be 100%. Moreover, in the data set with male Std:ddY mice (setting [4]), the ED50 came out at 0.23 mg/kg. Further, the “ED50 (mg/kg po)” value in the data set with male Std:ddY mice (oral administration, writhing inhibition, listed as Ex. 62) was determined as 0.43 mg/kg. Moreover, the “Number of wiping movements” value with Jcl:SD strain male rats (concentration 500 μg/ml) is “no significant increase”; in the data set with Jcl:SD strain male rats (concentration 500 μg/ml, listed as Ex. 62) it was 4.6 ± 1.2; with Jcl:SD strain male rats (concentration 1000 μg/ml) it was 7.6 ± 1.4.

Take `COc1cc(CC(=O)Nc2cccc(N3CCCC(C4CCCCC4)C3)c2)ccc1OCCN` (stereo not drawn) [Example 199, 4-(2-aminoethoxy)-N-[3-(3-cyclohexylpiperidin-1-yl)phenyl]-3-methoxyphenylacetamide]: in the data set with male Std:ddY mice (setting [1]), the inhibition in vivo at 10 mg/kg is 71.6%.

Turning to `COc1cc(CC(=O)Nc2cccc(-c3cccc(C(C)(C)C)c3)c2)ccc1OCCN` [Example 169, 4-(2-aminoethoxy)-N-[3-(3-tert-butylphenyl)phenyl]-3-methoxyphenylacetamide], in the data set on male Std:ddY mice (setting [1]), the inhibition in vivo at 10 mg/kg came out at 100%. Moreover, the ED50 in the data set on male Std:ddY mice (setting [2]) came to 1.29 mg/kg.

Consider `COc1cc(CC(=O)Nc2ccc3ccn(Cc4ccccc4)c3c2)ccc1OCCN` [Example 238, 4-(2-aminoethoxy)-3-methoxy-N-[1-benzylindol-6-yl]phenylacetamide], for which the inhibition in vivo at 1 mg/kg in the data set on male Std:ddY mice (setting [3]) was found to be 70.2%. Moreover, the ED50 in the data set with male Std:ddY mice (setting [4]) amounted to 0.37 mg/kg.

As to `COc1cc(CC(=O)Nc2cccc(-c3ccccc3C3CCCCC3)c2)ccc1OCCN` [Example 122, 4-(2-aminoethoxy)-N-[3-(2-cyclohexylphenyl)phenyl]-3-methoxyphenylacetamide], the inhibition in vivo at 10 mg/kg in the data set on male Std:ddY mice (setting [1]) is 99%. In addition, in the data set with male Std:ddY mice (setting [2]), the ED50 is not above 1 mg/kg. Moreover, in the data set on male Std:ddY mice (oral administration, writhing inhibition, listed as Ex. 122), the “ED50 (mg/kg po)” value was determined as 0.58 mg/kg.

Consider `COc1cc(CC(=O)Nc2cccc(C3CCCCC3c3ccccc3)c2)ccc1O` (stereo not drawn) [Example 11, 4-hydroxy-3-methoxy-N-[3-(2-phenylcyclohexan-1-yl)phenyl]-phenylacetamide], for which the inhibition in vivo at 1 mg/kg in the data set with male Std:ddY mice (setting [3]) amounted to 88.4%. Also, in the data set on male Std:ddY mice (setting [4]), the ED50 came to 0.19 mg/kg.

With `COc1cc(CC(=O)Nc2cccc(CCc3cccc(C)c3)c2)ccc1OCCN` [Example 217, 4-(2-aminoethoxy)-3-methoxy-N-[3-[2-(3-methylphenyl)ethyl]-phenyl]phenylacetamide], the inhibition in vivo at 10 mg/kg in the data set on male Std:ddY mice (setting [1]) worked out at 96.3%. The ED50 in the data set on male Std:ddY mice (setting [2]) was found to be 1.13 mg/kg.

Take `COc1cc(CC(=O)Nc2cccc(C3CCC(C(F)(F)F)CC3)c2)ccc1O` (stereo not drawn) [Example 81, 4-hydroxy-3-methoxy-N-[3-(4-trifluoromethylcyclohexan-1-yl)-phenyl]phenylacetamide]: the inhibition in vivo at 1 mg/kg with male Std:ddY mice (setting [3]) was 100%.

Consider `COc1cc(CC(=O)Nc2cccc(-c3ccccc3C)c2)ccc1OCCN` [Example 131, 4-(2-aminoethoxy)-3-methoxy-N-[3-(2-methylphenyl)phenyl]-phenylacetamide], for which the inhibition in vivo at 10 mg/kg in the data set on male Std:ddY mice (setting [1]) came to 100%. Also, the ED50 with male Std:ddY mice (setting [2]) turned out to be 1.1 mg/kg.

Consider `COc1cc(CC(=O)Nc2cccc(C3CCC(C(C)(C)C)CC3)c2)ccc1OC(=O)c1ccccc1` (stereo not drawn) [Example 70, 4-benzoyloxy-N-[3-(4-tert-butylcyclohexan-1-yl)phenyl]-3-methoxyphenylacetamide], for which the inhibition in vivo at 10 mg/kg in the data set on male Std:ddY mice (setting [1]) stood at 68.6%. Moreover, the values for the ED50 with male Std:ddY mice (setting [2]) and in the data set with male Std:ddY mice (setting [4]) were 9.7 mg/kg and 0.16 mg/kg, respectively. In the data set on male Std:ddY mice (setting [3]), the inhibition in vivo at 1 mg/kg was 93.2%.

Take `COc1cc(CC(=O)Nc2cccc(-c3cc4ccccc4o3)c2)ccc1OCCN` [Example 166, 4-(2-aminoethoxy)-N-[3-(benzofuran-2-yl)phenyl]-3-methoxyphenylacetamide]: the inhibition in vivo at 10 mg/kg in the data set on male Std:ddY mice (setting [1]) is 96%. Besides, in the data set with male Std:ddY mice (setting [2]), the ED50 came out at 2.4 mg/kg.

As for `COc1cc(CC(=O)Nc2ccc3c(c2)C(=O)C(Cc2ccccc2)CC3)ccc1O` (stereo not drawn) [Example 249, 4-hydroxy-3-methoxy-N-[1-oxo-2-phenylmethyl-1,2,3,4-tetrahydronaphthalen-7-yl]phenylacetamide], the inhibition in vivo at 1 mg/kg with male Std:ddY mice (setting [3]) was determined as 89.4%. Further, the “ED50 (mg/kg sc)” value in the data set with male Std:ddY mice (subcutaneous administration, writhing inhibition, listed as Ex. 249) is 0.043 mg/kg.
